Experimental data as given in patent US9902701B2, “Pyridazones and triazinones for treatment and prophylaxis of hepatitis B virus infection” (priority 2014, dated 2018).

The molecules below were run on HBsAg (assay: HBsAg assay: chemiluminescence immunoassay (CLIA) of secreted HBsAg in supernatant of HepG2.2.15 cells). Conditions: Hepatitis B virus.
Assay type: cell-based, HBV
Protocol: HepG2.2.15 cells (Acs et al. Proc Natl Acad Sci USA, 84, (1987), 4641-4), a constitutively HBV-expressing cell line were cultured in DMEM+Glutamax-I medium (Invitrogen, Carlsbad, Calif., USA), supplemented with 10% fetal bovine serum (Invitrogen) and G418 (Invitrogen) at a final concentration of 200 mg/L and maintained in 5% CO2 at 37° C.
HepG2.2.15 cells were seeded in duplicate into white, 96-well plates at 1.5×10^4 cells/well. The cells were treated with a three-fold serial dilution series of the compounds in DMSO. The final DMSO concentration in all wells was 1% and DMSO was used as no drug control.
The HBsAg chemiluminescence immunoassay (CLIA) kit (Autobio Diagnostics Co., Zhengzhou, China, Catalog number: CL0310-2) was used to measure the levels of secreted HBV antigens semi-quantitatively. For the detection 50 μL/well culture supernatant was used and HBsAg was quantified using HBsAg chemiluminescence immunoassay (CLIA) kit (Autobio Diagnostics Co., Zhengzhou, China, Catalog number: CL0310-2), 50 μL of the supernatant was transferred to the CLIA assay plate and 50 μL of enzyme conjugate reagent was added into each well. The plates were sealed and gently agitated for 1 hour at room temperature. The supernatant-enzyme-mixture was discarded and wells were washed 6 times with 300 μL of PBS. The residual liquid was removed by plating the CLIA plate […] on absorbent tissue paper. 25 μL of substrates A and B were added to each well. Luminance was measured using a luminometer (Mithras LB 940 Multimode Microplate Reader) after 10 minutes incubation. Dose-response curves were generated and the IC50 value was extrapolated by using the E-WorkBook Suite (ID Business Solutions Ltd., Guildford, UK). The IC50 was defined as the compound concentration (or conditioned media log dilution) at which HBsAg secretion was reduced by 50% compared to the no drug control.

First: CN(C(=O)CN1N=C(c2ccc(Cl)cc2)CCC1=O)c1ccc(Cl)cc1 [Example 1-1, N-(4-Chlorophenyl)-2-[3-(4-chlorophenyl)-6-oxo-4,5-dihydropyridazin-1-yl]-N-methyl-acetamide]
Second: CN(C(=O)CN1N=C(c2ccc(Cl)cc2)CCC1=O)c1ccc(F)cc1 [Example 1-6, 2-[3-(4-Chlorophenyl)-6-oxo-4,5-dihydropyridazin-1-yl]-N-(4-fluorophenyl)-N-methyl-acetamide]
The IC50 of the first is 2.3-fold lower: 1580 nM for the first, 3630 nM for the second. The first is the more potent here.

Compared with `CN(C(=O)CN1N=C(c2ccc(Cl)cc2)CCC1=O)c1ccc(F)c(C(F)(F)F)c1` [Example 1-2, 2-[3-(4-Chlorophenyl)-6-oxo-4,5-dihydropyridazin-1-yl]-N-[4-fluoro-3-(trifluoromethyl)phenyl]-N-methyl-acetamide], `CN(C(=O)CN1N=C(c2ccc(Cl)cc2)CCC1=O)c1ccc(C(F)(F)F)c(F)c1` [Example 1-3, 2-[3-(4-Chlorophenyl)-6-oxo-4,5-dihydropyridazin-1-yl]-N-[3-fluoro-4-(trifluoromethyl)phenyl]-N-methyl-acetamide] is 2.5-fold lower in IC50: 740 nM for the first, 301 nM for the second. The second is the more potent here.

Compared with `CN(C(=O)CN1N=C(c2ccc(Cl)cc2)CCC1=O)c1ccc(Cl)c(F)c1` [Example 1-4, N-(4-Chloro-3-fluoro-phenyl)-2-[3-(4-chlorophenyl)-6-oxo-4,5-dihydropyridazin-1-yl]-N-methyl-acetamide], `CN(C(=O)CN1N=C(c2ccc(Cl)cc2)CCC1=O)c1ccc(Cl)c(Cl)c1` [Example 1-8, 2-[3-(4-Chlorophenyl)-6-oxo-4,5-dihydropyridazin-1-yl]-N-(3,4-dichlorophenyl)-N-methyl-acetamide] is 4-fold lower in IC50: 994 nM for the first, 246 nM for the second. The second is the more potent here.

First: COc1cccc(N(C)C(=O)CN2N=C(c3ccc(Cl)cc3)CCC2=O)c1 [Example 1-5, 2-[3-(4-Chlorophenyl)-6-oxo-4,5-dihydropyridazin-1-yl]-N-(3-methoxyphenyl)-N-methyl-acetamide]
Second: Cc1cccc(N(C)C(=O)CN2N=C(c3ccc(Cl)cc3)CCC2=O)c1 [Example 1-21, 2-[3-(4-Chlorophenyl)-6-oxo-4,5-dihydropyridazin-1-yl]-N-methyl-N-(m-tolyl)acetamide]
The IC50 of the first is 4.6-fold higher: 9630 nM for the first, 2080 nM for the second. The second is the more potent here.

First: Cc1ccc(N(C)C(=O)CN2N=C(c3ccc(Cl)cc3)CCC2=O)cc1 [Example 1-7, 2-[3-(4-Chlorophenyl)-6-oxo-4,5-dihydropyridazin-1-yl]-N-methyl-N-(p-tolyl)acetamide]
Second: COc1ccc(N(C)C(=O)CN2N=C(c3ccc(Cl)cc3)CCC2=O)cc1 [Example 1-20, 2-[3-(4-Chlorophenyl)-6-oxo-4,5-dihydropyridazin-1-yl]-N-(4-methoxyphenyl)-N-methyl-acetamide]
The IC50 of the first is 2.3-fold lower: 2490 nM for the first, 5690 nM for the second. The first is the more potent here.

Going from `CN(C(=O)CN1N=C(c2ccc(Cl)cc2)CCC1=O)c1ccc(C(F)(F)F)cc1` [Example 1-9, 2-[3-(4-Chlorophenyl)-6-oxo-4,5-dihydropyridazin-1-yl]-N-methyl-N-[4-(trifluoromethyl)phenyl]acetamide] to `CN(C(=O)CN1N=C(c2ccc(Cl)cc2)CCC1=O)c1ccc(OC(F)(F)F)cc1` [Example 1-16, 2-[3-(4-Chlorophenyl)-6-oxo-4,5-dihydropyridazin-1-yl]-N-methyl-N-[4-(trifluoromethoxy)phenyl]acetamide], the IC50 rises from 389 nM to 3860 nM (9.9-fold). The first is the more potent here.

Going from `CN(C(=O)CN1N=C(c2ccc(Cl)cc2)CCC1=O)c1ccc(C#N)cc1` [Example 1-10, 2-[3-(4-Chlorophenyl)-6-oxo-4,5-dihydropyridazin-1-yl]-N-(4-cyanophenyl)-N-methyl-acetamide] to `COC(=O)c1ccc(N(C)C(=O)CN2N=C(c3ccc(Cl)cc3)CCC2=O)cc1` [Example 1-11, Methyl 4-[[2-[3-(4-chlorophenyl)-6-oxo-4,5-dihydropyridazin-1-yl]acetyl]-methyl-amino]benzoate], the IC50 rises from 5630 nM to 8740 nM (1.6-fold).

Compared with `CC(C)N(C(=O)c1ccc(N(C)C(=O)CN2N=C(c3ccc(Cl)cc3)CCC2=O)cc1)C(C)C` [Example 1-12, 4-[[2-[3-(4-Chlorophenyl)-6-oxo-4,5-dihydropyridazin-1-yl]acetyl]-methyl-amino]-N,N-diisopropyl-benzamide], `CCCCCN(C)C(=O)c1ccc(N(C)C(=O)CN2N=C(c3ccc(Cl)cc3)CCC2=O)cc1` [Example 1-14, 4-[[2-[3-(4-Chlorophenyl)-6-oxo-4,5-dihydropyridazin-1-yl]acetyl]-methyl-amino]-N-methyl-N-pentyl-benzamide] is 3.4-fold higher in IC50: 885 nM for the first, 3020 nM for the second. The first is the more potent here.

First: CN(C(=O)CN1N=C(c2ccc(Cl)cc2)CCC1=O)c1ccc(F)cc1F [Example 1-13, 2-[3-(4-Chlorophenyl)-6-oxo-4,5-dihydropyridazin-1-yl]-N-(2,4-difluorophenyl)-N-methyl-acetamide]
Second: CN(C(=O)CN1N=C(c2ccc(Cl)cc2)CCC1=O)c1cccc(F)c1 [Example 1-17, 2-[3-(4-Chlorophenyl)-6-oxo-4,5-dihydropyridazin-1-yl]-N-(3-fluorophenyl)-N-methyl-acetamide]
The IC50 of the first is 5.6-fold higher: 6610 nM for the first, 1170 nM for the second. The second is the more potent here.

Compared with `CN(C(=O)CN1N=C(c2ccc(Cl)cc2)CCC1=O)c1ccc(C(=O)NC2CCCCC2)cc1` [Example 1-15, 4-[[2-[3-(4-Chlorophenyl)-6-oxo-4,5-dihydropyridazin-1-yl]acetyl]-methyl-amino]-N-cyclohexyl-benzamide], `CN(C(=O)CN1N=C(c2ccc(Cl)cc2)CCC1=O)c1cccc(Cl)c1` [Example 1-18, N-(3-Chlorophenyl)-2-[3-(4-chlorophenyl)-6-oxo-4,5-dihydropyridazin-1-yl]-N-methyl-acetamide] is 5.8-fold lower in IC50: 5240 nM for the first, 900 nM for the second. The second is the more potent here.

Going from `CN(C(=O)CN1N=C(c2ccc(Cl)cc2)CCC1=O)c1cccc(C(F)(F)F)c1` [Example 1-19, 2-[3-(4-Chlorophenyl)-6-oxo-4,5-dihydropyridazin-1-yl]-N-methyl-N-[3-(trifluoromethyl)phenyl]acetamide] to `Cc1cc(Cl)ccc1C1=NN(CC(=O)N(C)c2cccc(C(F)(F)F)c2)C(=O)CC1` [Example 1-29, 2-[3-(4-Chloro-2-methylphenyl)-6-oxo-4,5-dihydropyridazin-1-yl]-N-methyl-N-[3-(trifluoromethyl)phenyl]acetamide], the IC50 falls from 1000 nM to 483 nM (2.1-fold). The second is the more potent here.

First: CN(C(=O)CN1N=C(c2ccc(Cl)c(F)c2)CCC1=O)c1ccc(F)cc1 [Example 1-22, 2-[3-(4-Chloro-3-fluoro-phenyl)-6-oxo-4,5-dihydropyridazin-1-yl]-N-(4-fluorophenyl)-N-methyl-acetamide]
Second: CN(C(=O)CN1N=C(c2ccc(Cl)c(F)c2)CCC1=O)c1cccc(F)c1 [Example 1-23, 2-[3-(4-Chloro-3-fluoro-phenyl)-6-oxo-4,5-dihydropyridazin-1-yl]-N-(3-fluorophenyl)-N-methyl-acetamide]
The IC50 of the first is 2-fold higher: 940 nM for the first, 460 nM for the second.

Going from `CN(C(=O)CN1N=C(c2ccc(Cl)c(F)c2)CCC1=O)c1cccc(Cl)c1` [Example 1-24, 2-[3-(4-Chloro-3-fluoro-phenyl)-6-oxo-4,5-dihydropyridazin-1-yl]-N-(3-chlorophenyl)-N-methyl-acetamide] to `Cc1cc(Cl)ccc1C1=NN(CC(=O)N(C)c2cccc(Cl)c2)C(=O)CC1` [Example 1-27, 2-[3-(4-Chloro-2-methyl-phenyl)-6-oxo-4,5-dihydropyridazin-1-yl]-N-(3-chlorophenyl)-N-methyl-acetamide], the IC50 rises from 168 nM to 814 nM (4.8-fold).

First: CN(C(=O)CN1N=C(c2ccc(Cl)c(F)c2)CCC1=O)c1ccc(C(F)(F)F)cc1 [Example 1-25, 2-[3-(4-Chloro-3-fluoro-phenyl)-6-oxo-4,5-dihydropyridazin-1-yl]-N-methyl-N-[4-(trifluoromethyl)phenyl]acetamide]
Second: CN(C(=O)CN1N=C(c2ccc(F)cc2F)CCC1=O)c1ccc(C(F)(F)F)cc1 [Example 1-30, 2-[3-(2,4-Difluorophenyl)-6-oxo-4,5-dihydropyridazin-1-yl]-N-methyl-N-[4-(trifluoromethyl)phenyl]acetamide]
The IC50 of the first is 1.7-fold lower: 240 nM for the first, 402 nM for the second.

Compared with `Cc1cc(Cl)ccc1C1=NN(CC(=O)N(C)c2ccc(Cl)cc2)C(=O)CC1` [Example 1-26, 2-[3-(4-Chloro-2-methylphenyl)-6-oxo-4,5-dihydropyridazin-1-yl]-N-(4-chlorophenyl)-N-methyl-acetamide], `Cc1cc(Cl)ccc1C1=NN(CC(=O)N(C)c2cccc(F)c2)C(=O)CC1` [Example 1-28, 2-[3-(4-Chloro-2-methyl-phenyl)-6-oxo-4,5-dihydropyridazin-1-yl]-N-(3-fluorophenyl)-N-methyl-acetamide] is 2.4-fold higher in IC50: 1880 nM for the first, 4590 nM for the second. The first is the more potent here.

Compared with `CN(C(=O)CN1N=C(c2ccc(F)cc2F)CCC1=O)c1cccc(C(F)(F)F)c1` [Example 1-31, 2-[3-(2,4-Difluorophenyl)-6-oxo-4,5-dihydropyridazin-1-yl]-N-methyl-N-[3-(trifluoromethyl)phenyl]acetamide], `CN(C(=O)CN1N=C(c2ccc(F)cc2F)CCC1=O)c1ccc(F)c(C(F)(F)F)c1` [Example 1-32, 2-[3-(2,4-Difluorophenyl)-6-oxo-4,5-dihydropyridazin-1-yl]-N-[4-fluoro-3-(trifluoromethyl)phenyl]-N-methyl-acetamide] is 1.6-fold lower in IC50: 830 nM for the first, 513 nM for the second.
